How the values were obtained:
Type in all cases: cell-based
[1] = biological target: proteins of U3A human fibrosarcoma cells (4462 proteins detected) (Homo sapiens, UniProt Q5HYK7); conditions: protein SH3D19; U3A, 10 μM, 2 h
[2] = biological target: proteins of U3A human fibrosarcoma cells (4462 proteins detected) (Homo sapiens, UniProt P38919); conditions: protein EIF4A3; soluble abundance after heat, U3A cells
[3] = biological target: proteins of U3A human fibrosarcoma cells (4462 proteins detected) (Homo sapiens, UniProt Q9HCJ0); conditions: protein TNRC6C, U3A cells
[4] = biological target: proteins of U3A human fibrosarcoma cells (4462 proteins detected) (Homo sapiens, UniProt Q9UNM6); conditions: protein PSMD13; U3A cells
[5] = biological target: proteins of U3A human fibrosarcoma cells (4462 proteins detected) (Homo sapiens, UniProt P10809); conditions: protein HSPD1; U3A, 10 μM, 2 h
[6] = biological target: proteins of U3A human fibrosarcoma cells (4462 proteins detected) (Homo sapiens, UniProt Q9NT62); conditions: protein ATG3; soluble abundance after heat, U3A cells
[7] = biological target: proteins of U3A human fibrosarcoma cells (4462 proteins detected) (Homo sapiens, UniProt Q14657); conditions: protein LAGE3; soluble abundance after heat, U3A cells
[8] = biological target: proteins of U3A human fibrosarcoma cells (4462 proteins detected) (Homo sapiens, UniProt Q8IZL8); conditions: protein PELP1; U3A cells
proteins of U3A human fibrosarcoma cells (4462 proteins detected) (Homo sapiens, UniProt Q8IZL8), sequence (Q8IZL8 whole entry): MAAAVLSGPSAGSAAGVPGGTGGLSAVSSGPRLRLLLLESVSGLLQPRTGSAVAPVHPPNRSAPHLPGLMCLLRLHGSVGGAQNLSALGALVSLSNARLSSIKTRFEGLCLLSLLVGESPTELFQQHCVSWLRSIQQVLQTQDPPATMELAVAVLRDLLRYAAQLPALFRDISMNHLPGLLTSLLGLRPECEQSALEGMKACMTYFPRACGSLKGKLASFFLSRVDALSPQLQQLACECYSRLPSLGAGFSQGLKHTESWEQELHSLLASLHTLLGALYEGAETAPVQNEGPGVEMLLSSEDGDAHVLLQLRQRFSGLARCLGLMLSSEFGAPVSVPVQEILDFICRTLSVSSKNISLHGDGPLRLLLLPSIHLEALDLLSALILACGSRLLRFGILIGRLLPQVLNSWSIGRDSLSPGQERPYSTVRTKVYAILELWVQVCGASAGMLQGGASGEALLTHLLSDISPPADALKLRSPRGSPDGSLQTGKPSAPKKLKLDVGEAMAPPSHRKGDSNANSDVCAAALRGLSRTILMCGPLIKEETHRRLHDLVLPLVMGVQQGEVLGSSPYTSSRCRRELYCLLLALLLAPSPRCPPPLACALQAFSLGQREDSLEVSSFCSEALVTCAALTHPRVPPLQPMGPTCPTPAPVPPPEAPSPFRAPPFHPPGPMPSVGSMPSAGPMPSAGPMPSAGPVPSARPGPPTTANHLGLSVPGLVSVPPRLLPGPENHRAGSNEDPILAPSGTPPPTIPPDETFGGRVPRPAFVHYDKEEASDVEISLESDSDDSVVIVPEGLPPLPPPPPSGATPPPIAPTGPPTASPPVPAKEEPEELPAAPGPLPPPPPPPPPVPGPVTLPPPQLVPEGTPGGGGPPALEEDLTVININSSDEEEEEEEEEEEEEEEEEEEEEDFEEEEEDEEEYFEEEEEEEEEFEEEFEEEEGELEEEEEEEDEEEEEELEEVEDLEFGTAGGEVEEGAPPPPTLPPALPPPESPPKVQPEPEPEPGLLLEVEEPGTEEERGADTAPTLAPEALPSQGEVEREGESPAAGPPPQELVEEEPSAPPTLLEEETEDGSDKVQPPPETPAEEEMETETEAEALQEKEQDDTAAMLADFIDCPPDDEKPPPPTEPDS

[9] = biological target: proteins of U3A human fibrosarcoma cells (4462 proteins detected) (Homo sapiens, UniProt P20839); conditions: protein IMPDH1, U3A cells
[10] = biological target: proteins of U3A human fibrosarcoma cells (4462 proteins detected) (Homo sapiens, UniProt Q86UA6); conditions: protein RPAIN, U3A cells
[11] = biological target: proteins of U3A human fibrosarcoma cells (4462 proteins detected) (Homo sapiens, UniProt Q9NSV4); conditions: protein DIAPH3, U3A cells
[12] = biological target: proteins of U3A human fibrosarcoma cells (4462 proteins detected) (Homo sapiens, UniProt Q8NAV1); conditions: protein PRPF38A; U3A cells
proteins of U3A human fibrosarcoma cells (4462 proteins detected) (Homo sapiens, UniProt Q8NAV1), sequence (Q8NAV1 whole entry): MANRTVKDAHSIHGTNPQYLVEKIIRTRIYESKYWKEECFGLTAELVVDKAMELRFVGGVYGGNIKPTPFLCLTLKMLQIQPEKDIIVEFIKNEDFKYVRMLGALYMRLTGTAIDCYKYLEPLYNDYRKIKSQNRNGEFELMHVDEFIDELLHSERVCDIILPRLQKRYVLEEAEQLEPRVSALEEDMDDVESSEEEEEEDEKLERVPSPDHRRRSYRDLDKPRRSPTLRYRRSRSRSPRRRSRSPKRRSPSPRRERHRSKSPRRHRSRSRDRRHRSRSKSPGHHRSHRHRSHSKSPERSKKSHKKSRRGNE

[13] = biological target: proteins of U3A human fibrosarcoma cells (4462 proteins detected) (Homo sapiens, UniProt Q9NR28); conditions: protein DIABLO; U3A cells
[14] = biological target: proteins of U3A human fibrosarcoma cells (4462 proteins detected) (Homo sapiens, UniProt P17813); conditions: protein ENG; U3A cells
[15] = biological target: proteins of U3A human fibrosarcoma cells (4462 proteins detected) (Homo sapiens, UniProt O00487); conditions: protein PSMD14; U3A cells
proteins of U3A human fibrosarcoma cells (4462 proteins detected) (Homo sapiens, UniProt O00487), sequence (O00487 whole entry): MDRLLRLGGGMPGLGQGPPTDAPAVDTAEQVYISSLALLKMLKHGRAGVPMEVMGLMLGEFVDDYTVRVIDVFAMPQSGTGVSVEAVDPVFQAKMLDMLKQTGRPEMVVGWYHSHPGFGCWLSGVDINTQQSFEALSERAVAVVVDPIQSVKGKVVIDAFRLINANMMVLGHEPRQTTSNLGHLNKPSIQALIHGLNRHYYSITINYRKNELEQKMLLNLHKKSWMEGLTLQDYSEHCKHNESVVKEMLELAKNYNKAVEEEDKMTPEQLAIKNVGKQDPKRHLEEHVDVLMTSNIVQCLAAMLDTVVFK

[16] = biological target: proteins of U3A human fibrosarcoma cells (4462 proteins detected) (Homo sapiens, UniProt O00159); conditions: protein MYO1C, U3A cells
[17] = biological target: proteins of U3A human fibrosarcoma cells (4462 proteins detected) (Homo sapiens, UniProt Q92585); conditions: protein MAML1, U3A cells
[18] = biological target: proteins of U3A human fibrosarcoma cells (4462 proteins detected) (Homo sapiens, UniProt Q68CP9); conditions: protein ARID2; U3A cells
proteins of U3A human fibrosarcoma cells (4462 proteins detected) (Homo sapiens, UniProt Q68CP9), sequence (Q68CP9 whole entry): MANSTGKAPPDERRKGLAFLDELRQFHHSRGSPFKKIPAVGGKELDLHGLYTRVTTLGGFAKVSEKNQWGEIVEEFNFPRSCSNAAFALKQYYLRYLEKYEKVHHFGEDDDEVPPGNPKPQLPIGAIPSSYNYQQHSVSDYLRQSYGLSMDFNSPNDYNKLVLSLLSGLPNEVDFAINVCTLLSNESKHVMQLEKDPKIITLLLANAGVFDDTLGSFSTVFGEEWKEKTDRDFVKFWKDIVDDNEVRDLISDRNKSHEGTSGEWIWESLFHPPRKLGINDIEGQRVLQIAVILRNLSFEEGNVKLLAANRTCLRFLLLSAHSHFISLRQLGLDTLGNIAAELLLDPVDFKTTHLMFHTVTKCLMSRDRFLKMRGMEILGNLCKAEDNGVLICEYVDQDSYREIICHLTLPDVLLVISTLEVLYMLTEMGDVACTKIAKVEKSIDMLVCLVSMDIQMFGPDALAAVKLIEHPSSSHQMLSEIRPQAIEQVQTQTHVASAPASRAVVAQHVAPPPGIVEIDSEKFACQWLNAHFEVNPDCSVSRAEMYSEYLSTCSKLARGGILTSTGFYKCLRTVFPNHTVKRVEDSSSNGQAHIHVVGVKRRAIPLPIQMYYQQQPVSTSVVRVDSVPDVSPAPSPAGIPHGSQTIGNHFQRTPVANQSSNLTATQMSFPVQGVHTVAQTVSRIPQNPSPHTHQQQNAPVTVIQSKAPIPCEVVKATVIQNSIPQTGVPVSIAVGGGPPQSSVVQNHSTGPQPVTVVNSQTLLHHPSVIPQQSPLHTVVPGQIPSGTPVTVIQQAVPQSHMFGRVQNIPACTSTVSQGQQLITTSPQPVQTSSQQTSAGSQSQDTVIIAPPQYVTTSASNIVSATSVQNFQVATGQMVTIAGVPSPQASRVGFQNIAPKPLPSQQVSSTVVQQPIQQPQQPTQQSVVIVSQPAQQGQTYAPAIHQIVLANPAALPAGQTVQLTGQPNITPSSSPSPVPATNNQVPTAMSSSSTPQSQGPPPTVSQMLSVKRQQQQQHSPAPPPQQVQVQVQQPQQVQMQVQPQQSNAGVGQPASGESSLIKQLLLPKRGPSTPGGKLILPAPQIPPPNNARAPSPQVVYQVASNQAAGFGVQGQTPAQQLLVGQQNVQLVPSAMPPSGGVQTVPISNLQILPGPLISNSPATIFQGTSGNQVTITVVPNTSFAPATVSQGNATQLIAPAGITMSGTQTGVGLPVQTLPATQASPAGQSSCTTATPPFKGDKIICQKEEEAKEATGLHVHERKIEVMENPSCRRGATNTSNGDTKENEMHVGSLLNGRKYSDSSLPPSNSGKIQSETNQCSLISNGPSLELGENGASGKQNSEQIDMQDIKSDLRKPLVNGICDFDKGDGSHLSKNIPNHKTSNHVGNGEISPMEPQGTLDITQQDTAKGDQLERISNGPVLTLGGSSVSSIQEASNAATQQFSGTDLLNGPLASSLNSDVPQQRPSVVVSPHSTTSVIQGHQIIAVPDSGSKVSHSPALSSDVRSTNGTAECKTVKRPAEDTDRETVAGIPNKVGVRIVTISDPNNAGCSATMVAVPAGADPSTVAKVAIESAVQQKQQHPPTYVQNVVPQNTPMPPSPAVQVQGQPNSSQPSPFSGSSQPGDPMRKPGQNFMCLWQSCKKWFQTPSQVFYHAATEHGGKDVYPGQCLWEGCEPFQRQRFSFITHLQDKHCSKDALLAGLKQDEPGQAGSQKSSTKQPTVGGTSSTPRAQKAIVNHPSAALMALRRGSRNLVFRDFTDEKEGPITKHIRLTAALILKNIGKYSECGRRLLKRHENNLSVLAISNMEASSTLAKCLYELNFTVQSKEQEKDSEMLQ

[19] = biological target: proteins of U3A human fibrosarcoma cells (4462 proteins detected) (Homo sapiens, UniProt O75635); conditions: protein SERPINB7; U3A, 10 μM, 2 h
[20] = biological target: proteins of U3A human fibrosarcoma cells (4462 proteins detected) (Homo sapiens, UniProt P27694); conditions: protein RPA1; U3A cells
[21] = biological target: proteins of U3A human fibrosarcoma cells (4462 proteins detected) (Homo sapiens, UniProt P36543); conditions: protein ATP6V1E1; soluble abundance after heat, U3A cells
[22] = biological target: proteins of U3A human fibrosarcoma cells (4462 proteins detected) (Homo sapiens, UniProt Q15814); conditions: protein TBCC; U3A cells
[23] = biological target: proteins of U3A human fibrosarcoma cells (4462 proteins detected) (Homo sapiens, UniProt P05023); conditions: protein ATP1A1; U3A, 10 μM, 2 h
[24] = biological target: proteins of U3A human fibrosarcoma cells (4462 proteins detected) (Homo sapiens, UniProt P54886); conditions: protein ALDH18A1; U3A cells
[25] = biological target: proteins of U3A human fibrosarcoma cells (4462 proteins detected) (Homo sapiens, UniProt P62857); conditions: protein RPS28, U3A cells
[26] = biological target: proteins of U3A human fibrosarcoma cells (4462 proteins detected) (Homo sapiens, UniProt O75976); conditions: protein CPD; soluble abundance after heat, U3A cells
[27] = biological target: proteins of U3A human fibrosarcoma cells (4462 proteins detected) (Homo sapiens, UniProt Q96FF9); conditions: protein CDCA5; U3A cells
[28] = biological target: proteins of U3A human fibrosarcoma cells (4462 proteins detected) (Homo sapiens, UniProt Q9P2E9); conditions: protein RRBP1; soluble abundance after heat, U3A cells
proteins of U3A human fibrosarcoma cells (4462 proteins detected) (Homo sapiens, UniProt Q9P2E9), sequence (Q9P2E9 whole entry): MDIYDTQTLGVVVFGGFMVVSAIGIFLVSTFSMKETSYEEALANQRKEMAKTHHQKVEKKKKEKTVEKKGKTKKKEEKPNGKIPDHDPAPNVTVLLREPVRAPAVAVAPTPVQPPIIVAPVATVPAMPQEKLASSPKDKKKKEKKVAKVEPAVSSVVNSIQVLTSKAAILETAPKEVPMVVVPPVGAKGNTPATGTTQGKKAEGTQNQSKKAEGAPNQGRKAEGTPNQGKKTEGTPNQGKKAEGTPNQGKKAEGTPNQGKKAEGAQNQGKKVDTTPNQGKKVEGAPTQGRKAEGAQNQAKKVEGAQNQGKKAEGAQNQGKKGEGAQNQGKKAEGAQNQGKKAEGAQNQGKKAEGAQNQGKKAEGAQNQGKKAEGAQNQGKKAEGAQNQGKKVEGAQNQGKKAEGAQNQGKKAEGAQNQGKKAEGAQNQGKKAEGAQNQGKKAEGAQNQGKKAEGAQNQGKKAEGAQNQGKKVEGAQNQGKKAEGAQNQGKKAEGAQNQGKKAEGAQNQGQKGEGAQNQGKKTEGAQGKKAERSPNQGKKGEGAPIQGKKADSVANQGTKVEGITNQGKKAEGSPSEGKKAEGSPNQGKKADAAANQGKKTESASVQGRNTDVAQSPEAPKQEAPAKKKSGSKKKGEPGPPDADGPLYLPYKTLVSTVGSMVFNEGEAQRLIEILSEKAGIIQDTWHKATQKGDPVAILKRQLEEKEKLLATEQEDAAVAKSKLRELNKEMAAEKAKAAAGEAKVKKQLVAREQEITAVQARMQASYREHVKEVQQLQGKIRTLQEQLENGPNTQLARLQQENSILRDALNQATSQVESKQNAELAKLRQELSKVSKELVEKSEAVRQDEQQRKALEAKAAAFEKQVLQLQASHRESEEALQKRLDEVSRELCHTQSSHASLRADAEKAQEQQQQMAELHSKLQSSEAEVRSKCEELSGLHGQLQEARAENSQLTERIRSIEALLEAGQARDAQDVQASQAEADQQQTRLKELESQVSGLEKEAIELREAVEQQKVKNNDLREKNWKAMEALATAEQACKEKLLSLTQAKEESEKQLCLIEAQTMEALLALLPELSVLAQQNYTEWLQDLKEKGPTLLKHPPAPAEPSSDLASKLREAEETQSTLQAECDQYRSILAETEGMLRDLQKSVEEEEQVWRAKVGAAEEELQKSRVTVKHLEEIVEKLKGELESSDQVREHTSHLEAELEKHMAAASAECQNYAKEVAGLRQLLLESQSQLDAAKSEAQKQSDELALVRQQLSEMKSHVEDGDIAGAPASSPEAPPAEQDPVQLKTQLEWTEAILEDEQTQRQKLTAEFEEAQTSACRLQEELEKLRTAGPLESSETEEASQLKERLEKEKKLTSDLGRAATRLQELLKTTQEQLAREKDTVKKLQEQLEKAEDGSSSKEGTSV

[29] = biological target: proteins of U3A human fibrosarcoma cells (4462 proteins detected) (Homo sapiens, UniProt Q9Y2A7); conditions: protein NCKAP1; U3A cells
[30] = biological target: proteins of U3A human fibrosarcoma cells (4462 proteins detected) (Homo sapiens, UniProt Q96PK6); conditions: protein RBM14; soluble abundance after heat, U3A cells

## CCc1nc(N)nc(N)c1-c1ccc(Cl)cc1 [pyrimethamine]
[1]
  Log2 (PYR/DMSO), SH3D19: -0.14
[2]
  Log2 (PYR/DMSO): 0.15
[3]
  Log2 (PYR/DMSO): -0.04
[4]
  Log2 (PYR/DMSO): 0.17
[5]
  Log2 (PYR/DMSO), HSPD1: 0.35
[6]
  Log2 (PYR/DMSO): 0.13
[7]
  Log2 (PYR/DMSO): 0.14
[8]
  Log2 (PYR/DMSO): 0.16
[9]
  Log2 (PYR/DMSO): -0.04
[10]
  Log2 (PYR/DMSO): -0.04
[11]
  Log2 (PYR/DMSO): -0.04
[12]
  Log2 (PYR/DMSO): 0.16
[13]
  Log2 (PYR/DMSO): 0.16
[14]
  Log2 (PYR/DMSO): 0.15
[15]
  Log2 (PYR/DMSO): 0.17
[16]
  Log2 (PYR/DMSO): -0.03
[17]
  Log2 (PYR/DMSO): -0.04
[18]
  Log2 (PYR/DMSO): 0.18
[19]
  Log2 (PYR/DMSO), SERPINB7: -0.19
[20]
  Log2 (PYR/DMSO): 0.16
[21]
  Log2 (PYR/DMSO): 0.14
[22]
  Log2 (PYR/DMSO): 0.20
[23]
  Log2 (PYR/DMSO), ATP1A1: 0.37
[24]
  Log2 (PYR/DMSO): 0.17
[25]
  Log2 (PYR/DMSO): -0.05
[26]
  Log2 (PYR/DMSO): 0.14
[27]
  Log2 (PYR/DMSO): 0.19
[28]
  Log2 (PYR/DMSO): 0.15
[29]
  Log2 (PYR/DMSO): 0.15
[30]
  Log2 (PYR/DMSO): 0.14

From PMC8800111 (The Journal of Biological Chemistry, 2021)
